Test results from US11881286B2, “CD8+ t cell based immunosuppressive tumor microenvironment detection method” (GENENTECH, INC., priority 2019, dated 2024).

Legend:
[1] = system: OAW42; test: Surface MHC-I (HLA-ABC) expression by flow cytometry, OAW42; assay type: cell-based, human; settings: 96 h
Method: (§1) SK-OV-3 and OVCA-420 (MHC-I^high), and OAW42 and PA-1 (MHC-I^low) ovarian cancer lines were cultured in complete culture media (RPMI-1640+10% FBS). The cells were plated at 12,500-100,000 cells/well in 6-well tissue culture plate and complete culture media. After 24 hours, the cells were starved overnight in DMEM high glucose medium without FBS. Next, the starving media was replaced with culture media only (DMEM+2% FBS), 10 ng/mL rhTGFβ1 (Cat #PHG9204, Thermo Fisher, CA), 10 ng/mL rhTGFβ1+10 μM Galunisertib (Cat #S2230, SelleckChem, TX) or 5 ng/mL recombinant IFNγ (Cat #554617, BD Biosciences, CA) for 96 h at 37° C. Cells were then stained and analysed by flow cytometry. The “percentage of untreated” was calculated using this formula: [Geo Mean Fluorescence Intensity (IFNγ-treated cells)/Geo Mean Fluorescence Intensity (untreated cells)]×100. […] Media was half-replenished with fresh 5-Aza 48 hours after treatment to keep concentration consistent. Before staining, Fc receptors were blocked for 10 min at room temperature using FcR blocking reagent human (Cat #130-059-901, Miltenyi Biotec, CA). Cells were stained during the blocking step with the LIVE/DEAD™ Fixable Near-IR Dead Cell (Cat #L10119, Invitrogen, CA). […]

[2] = system: PA-1; test: Surface MHC-I (HLA-ABC) expression by flow cytometry, PA-1; assay type: cell-based, human; settings: 96 h
Method: as §1

[3] = system: SK-OV-3; test: Surface MHC-I (HLA-ABC) expression by flow cytometry, SK-OV-3; assay type: cell-based, human; settings: 96 h
Method: SK-OV-3 and OVCA-420 (MHC-I^high), and OAW42 and PA-1 (MHC-I^low) ovarian cancer lines were cultured in complete culture media (RPMI-1640+10% FBS). The cells were plated at 12,500-100,000 cells/well in 6-well tissue culture plate and complete culture media. After 24 hours, the cells were starved overnight in DMEM high glucose medium without FBS. Next, the starving media was replaced with culture media only (DMEM+2% FBS), 10 ng/mL rhTGFβ1 (Cat #PHG9204, Thermo Fisher, CA), 10 ng/mL rhTGFβ1+10 μM Galunisertib (Cat #S2230, SelleckChem, TX) or 5 ng/mL recombinant IFNγ (Cat #554617, BD Biosciences, CA) for 96 h at 37° C. Cells were then stained and analysed by flow cytometry. The “percentage of untreated” was calculated using this formula: [Geo Mean Fluorescence Intensity (IFNγ-treated cells)/Geo Mean Fluorescence Intensity (untreated cells)]×100. In order to see if MHC-I expression can be regulated by methylation, two MHC-I^low lines OAW42 and PA-1 were plated at 250,000-500,000 cells/dish in 10-cm dish and serum starved as described above for TGFβ1 treatment. 10 μM and 1 μM 5-Aza-2′-deoxycytidine (5-Aza, Cat #A2385, Sigma-Aldrich) demethylating agent in culture media was used to treat OAW42 and PA-1, respectively, for 96 h prior to FACS analysis. Media was half-replenished with fresh 5-Aza 48 hours after treatment to keep concentration consistent. […]

[4] = system: OVCA-420; test: Surface MHC-I (HLA-ABC) expression by flow cytometry, OVCA-420; assay type: cell-based, human
Method: SK-OV-3 and OVCA-420 (MHC-I^high), and OAW42 and PA-1 (MHC-I^low) ovarian cancer lines were cultured in complete culture media (RPMI-1640+10% FBS). The cells were plated at 12,500-100,000 cells/well in 6-well tissue culture plate and complete culture media. After 24 hours, the cells were starved overnight in DMEM high glucose medium without FBS. Next, the starving media was replaced with culture media only (DMEM+2% FBS), 10 ng/mL rhTGFβ1 (Cat #PHG9204, Thermo Fisher, CA), 10 ng/mL rhTGFβ1+10 μM Galunisertib (Cat #S2230, SelleckChem, TX) or 5 ng/mL recombinant IFNγ (Cat #554617, BD Biosciences, CA) for 96 h at 37° C. Cells were then stained and analysed by flow cytometry. The “percentage of untreated” was calculated using this formula: [Geo Mean Fluorescence Intensity (IFNγ-treated cells)/Geo Mean Fluorescence Intensity (untreated cells)]×100. In order to see if MHC-I expression can be regulated by methylation, two MHC-I^low lines OAW42 and PA-1 were plated at 250,000-500,000 cells/dish in 10-cm dish and serum starved as described above for TGFβ1 treatment. 10 μM and 1 μM 5-Aza-2′-deoxycytidine (5-Aza, Cat #A2385, Sigma-Aldrich) demethylating agent in culture media was used to treat OAW42 and PA-1, respectively, for 96 h prior to FACS analysis. Media was half-replenished with fresh 5-Aza 48 hours after treatment to keep concentration consistent.
Before staining, Fc receptors were blocked for 10 min at room temperature using FcR blocking reagent human (Cat #130-059-901, Miltenyi Biotec, CA). Cells were stained during the blocking step with the LIVE/DEAD™ Fixable Near-IR Dead Cell (Cat #L10119, Invitrogen, CA). Then, cells were incubated at room temperature for 15 min with anti-human HLA-ABC-PE (Cat #560168, BD Biosciences, CA) or isotype control mouse IgG1κ-PE (Cat #556650, BD Biosciences) antibodies, washed and samples were acquired on BD LSRFortessa™ flow cytometer.

[5] = system: SMAD2/3; test: p-SMAD2/3 Western blot assay in PHBF fibroblasts; assay type: cell-based, human; settings: 30 min
Method: PHBF cells were plated at 100,000 cells/well in a 24-well cell culture plate overnight, serum starved for 24 h and then cultured in serum-free DMEM with indicated concentration of […] with or without Galunisertib for 30 min. Cells were lysed in protein lysis buffer containing T-PER tissue protein extraction reagent (ThermoFisher, #78510), cOmplete™ Protease Inhibitor Cocktail (Sigma-Aldrich, #11697498001) and PhosSTOP™ phosphatase inhibitor cocktails (Sigma-Aldrich, #4906845001). Total protein was diluted and normalized to 0.5 μg/μL with 4×LDS Sample Buffer (ThermoFisher, #84788). 10 ug of total protein was loaded into each well of a NuPAGE 4-12% Bis-Tris Midi Gel (Invitrogen), followed by protein transfer from gel to the membrane using Trans-Blot Turbo (Bio-Rad). […] Briefly, the membrane was blocked for 1 h, incubated with Phospho-Smad2 antibodies overnight at 4° C. ([…], 1:200, Cell Signaling #3108, clone138D4), washed and incubated with secondary antibodies goat anti-rabbit. To analyse the total Smad2/3, the membrane was stripped and then incubated with Smad2/3 antibodies (1:1000, Cell Signaling #8685).

[6] = system: primary human fibroblasts; test: Proliferation assay (CellTiter-Glo) of primary human fibroblasts; assay type: cell-based; settings: ovary, bladder and colon fibroblasts, 72 h
Method: (§2) The primary normal fibroblast PHBF (Bladder), CCD-18Co (Colon) and HOF (Ovary) were serum-starved overnight before treatment with media only (untreated), 10 ng/mL rhTGFβ1 or 10 ng/mL rhTGFβ1+10 μM Galunisertib for 24 hours and total RNA was extracted for RNA-seq analysis. To detect IL-6 protein in the supernatant, cells were treated for 48 hours with rhTGFβ1. After the 48 h, the supernatant was collected and analysed by Luminex using the Millipore kit. For the proliferation assay, PHBF, CCD-18Co, HOF were plated at 3,000 cells/well in a 96-well culture flat bottom plate for immunofluorescent assays (Corning, #3917) overnight. Cells were then cultured for 72 hours in DMEM high glucose+1% FBS with indicated concentration of TGFβ1 with or without Galunisertib. Next, CellTiter-Glo® reagents (Promega, G7570) were added to each well and luminescence signal was read with a microplate reader.

[7] = system: primary human fibroblasts; test: RNA-seq transcriptional response of primary human fibroblasts; assay type: cell-based; settings: 10 ng/mL rhTGFβ1, 24 h
Method: as §2

[8] = system: IL-6; test: IL-6 protein in fibroblast supernatant by Luminex; assay type: cell-based, human; settings: rhTGFβ1, 48 h
Method: as §2

Molecule: Nc1ncn([C@H]2C[C@H](O)[C@@H](CO)O2)c(=O)n1 [5-aza-2′-deoxycytidine]
- expression of MHC class I protein at the tumor cell surface ([1]; OAW42, 10 μM 5-Aza, vs DMSO): significantly induce
- expression of MHC class I protein at the tumor cell surface ([2]; PA-1, 1 μM 5-Aza, vs DMSO): significantly induce

Molecule: Cc1cccc(-c2nn3c(c2-c2ccnc4ccc(C(N)=O)cc24)CCC3)n1 [Galunisertib]
- MHC class I expression in the presence of Galunisertib ([3]; SK-OV-3, 10 ng/mL rhTGFβ1+10 μM Galunisertib): restored to the untreated level
- MHC class I expression in the presence of Galunisertib ([4]; OVCA-420, 10 ng/mL rhTGFβ1+10 μM Galunisertib, 96 h): restored to the untreated level
- TGFβ pathway (SMAD2/3 phosphorylation) with Galunisertib treatment ([5]; TGFβ1 with Galunisertib): pathway inhibition

Molecule: TGFβ1: recombinant human TGFβ1 (rhTGFβ1, Cat #PHG9204, Thermo Fisher)
- decrease of surface expression of MHC-I compared to the untreated cells ([4]; OVCA-420, 10 ng/mL rhTGFβ1, 96 h, flow cytometry): 40.45±14.2%
- phosphorylation level of SMAD2/3 ([5]; TGFβ dose-dependent): increased
- proliferation of primary human fibroblasts [6]: promoted proliferation
- expression of immune-modulatory molecules (IL11, TNFAIP6) in fibroblast cells [7]: specifically induced
- mRNA expression of IL6 in human fibroblasts [7]: specifically induced
- transcriptional program induced in human primary fibroblasts (ECM-related genes, reactive stroma markers) ([7]; ovary, bladder, colon fibroblasts): common 77-gene transcriptional program specifically induced
- IL-6 protein secretion level in the supernatant [8]: dramatically increased

B1: IFNγ: recombinant IFNγ, a cytokine well established for inducing MHC-I expression (protein, UniProt P01579 24-161, looked up)
Interferon gamma: QDPYVKEAENLKKYFNAGHSDVADNGTLFLGILKNWKEESDRKIMQSQIVSFYFKLFKNFKDDQSIQKSVETIKEDMNVKFFNSNKKKRDDFEKLTNYSVTDLNVQRKAIHELIQVMAELSPAAKTGKRKRSQMLFRG
- MHC class I protein expression on the tumor cell surface ([3]; SK-OV-3 (MHC-I high), 5 ng/mL IFNγ): increased
- MHC class I protein expression on the tumor cell surface ([4]; OVCA-420 (MHC-I high), 5 ng/mL IFNγ, 96 h): increased
- MHC class I protein expression on the tumor cell surface ([1]; OAW42 (MHC-I low), 5 ng/mL IFNγ): increased
- MHC class I protein expression on the tumor cell surface ([2]; PA-1 (MHC-I low), 5 ng/mL IFNγ): increased
